Reference: ChEMBL document CHEMBL5154781, “Discovery of Novel Sertraline Derivatives as Potent Anti-Cryptococcus Agents” (J Med Chem, 2022)
Active and inactive are the calls of the source. The rule behind the calls is not given here.

What was measured:
Cryptococcus neoformans [1] = test: Inhibition of Cryptococcus neoformans H99 delta5,6-desaturase assessed as upregulation of ERG11 gene expression at 2 ug/ml incubated for 24 hrs by RT-PCR analysis; settings: dose 2.0 µg/ml
[Candida] auris [2] = Antifungal activity against Candida auris 15448 assessed as inhibition of fungal growth incubated for 48 hrs by microdilution method; assay type: functional, organism-based; settings: Candidozyma auris, 15448, 48 h
Cryptococcus neoformans [3] = test: Inhibition of Cryptococcus neoformans H99 delta5,6-desaturase assessed as decrease in ergosterol level at 1 ug/ml incubated for 24 hrs by GC-MS analysis; settings: dose 1.0 µg/ml
Cryptococcus neoformans [4] = test: Anti-cryptococcal activity against Cryptococcus neoformans H99 assessed as inhibition of fungal growth at 1 ug/ml measured after 72 hrs by time-growth curve assay; assay type: functional, organism-based; settings: dose 1.0 µg/ml
Cryptococcus neoformans [5] = test: Inhibition of Cryptococcus neoformans H99 delta5,6-desaturase assessed as change in sterol content at 2 ug/ml incubated for 24 hrs by GC-MS analysis; settings: dose 2.0 µg/ml
Cryptococcus neoformans [6] = test: Inhibition of Cryptococcus neoformans H99 delta5,6-desaturase assessed as upregulation of ERG24 gene expression at 2 ug/ml incubated for 24 hrs by RT-PCR analysis; settings: dose 2.0 µg/ml
[7] = Metabolic stability in mouse liver microsomes assessed as clearance; assay type: ADME, Microsome
Nakaseomyces glabratus [8] = test: microbe, parasite or virus in culture; assay type: functional, organism-based; settings: Nakaseomyces glabratus, 9073, 48 h
Description: Antifungal activity against Candida glabrata 9073 assessed as inhibition of fungal growth incubated for 48 hrs by microdilution method

[Candida] auris [9] = microbe, parasite or virus in culture; assay type: functional, organism-based; settings: Candidozyma auris, 0030, 48 h
Description: Antifungal activity against Candida auris 0030 assessed as inhibition of fungal growth incubated for 48 hrs by microdilution method

Cryptococcus neoformans [10] = test: microbe, parasite or virus in culture; assay type: functional, organism-based; settings: H99, 72 h
Description: Anti-cryptococcal activity against Cryptococcus neoformans H99 assessed as inhibition of fungal growth incubated for 72 hrs by microdilution method

Candida albicans [11] = test: microbe, parasite or virus in culture; assay type: functional, organism-based; settings: Candida albicans, 904, 48 h
Description: Antifungal activity against Candida albicans 904 assessed as inhibition of fungal growth incubated for 48 hrs by microdilution method

Candida albicans [12] = test: microbe, parasite or virus in culture; assay type: functional, organism-based; settings: Candida albicans, 0304103, 48 h
Description: Antifungal activity against Candida albicans 0304103 assessed as inhibition of fungal growth incubated for 48 hrs by microdilution method

Cryptococcus neoformans [13] = test: Anti-cryptococcal activity against Cryptococcus neoformans H99 assessed as inhibition of fungal growth at 8 ug/ml measured after 72 hrs by time-growth curve assay; assay type: functional; set-up: scale not given: the % may be the effect or the level left; settings: dose 8 µg/ml
Cryptococcus neoformans [14] = test: Inhibition of Cryptococcus neoformans H99 delta5,6-desaturase assessed as upregulation of ERG4 gene expression at 2 ug/ml incubated for 24 hrs by RT-PCR analysis; settings: dose 2.0 µg/ml
[15] = Metabolic stability in mouse liver microsomes assessed as half life; assay type: ADME, Microsome
Cryptococcus neoformans [16] = test: Anti-cryptococcal activity against Cryptococcus neoformans H99 assessed as efflux of cell contents at 4 ug/ml incubated for 8 hrs by transmission electron microscopy; assay type: functional, organism-based; settings: dose 4.0 µg/ml
Cryptococcus neoformans [17] = test: Inhibition of Cryptococcus neoformans H99 delta5,6-desaturase assessed as upregulation of ERG2 gene expression at 2 ug/ml incubated for 24 hrs by RT-PCR analysis; settings: dose 2.0 µg/ml
Cryptococcus neoformans [18] = test: Inhibition of Cryptococcus neoformans H99 delta5,6-desaturase assessed as blockade of ergosterol biosynthesis at 0.5 ug/ml pretreated with ERG enzymes followed by compound addition incubated for 24 hrs in presence of NADPH by GC-MS analysis; settings: dose 0.5 µg/ml
Candida albicans [19] = test: Upregulation of ERG3 in Candida albicans SC3514 at 0.5 ug/ml incubated for 24 hrs by RT-PCR analysis; assay type: functional; settings: dose 0.5 µg/ml
Cryptococcus neoformans [20] = test: Inhibition of biofilm formation in Cryptococcus neoformans H99 at 0.5 to 8 ug/ml incubated for 24 hrs by XTT reduction assay; assay type: functional, organism-based; settings: dose 0.5-8 µg/ml, DDE = dose-dependent effect
Candida albicans [21] = test: Antifungal activity against Candida albicans SC3514 assessed as decrease in ergosterol content at 2 ug/ml incubated for 24 hrs in presence of NADPH by GC-MS analysis; assay type: functional, organism-based; settings: dose 2.0 µg/ml
Cryptococcus neoformans [22] = test: Inhibition of Cryptococcus neoformans H99 delta5,6-desaturase assessed as upregulation of ERG5 gene expression at 2 ug/ml incubated for 24 hrs by RT-PCR analysis; settings: dose 2.0 µg/ml
Cryptococcus neoformans [23] = test: Inhibition of Cryptococcus neoformans H99 delta5,6-desaturase assessed as blockade of ergosterol biosynthesis pretreated at 3 ug/ml followed by addition of ERG enzymes incubated for 24 hrs in presence of NADPH by GC-MS analysis; settings: dose 3.0 µg/ml
Aspergillus fumigatus [24] = test: microbe, parasite or virus in culture; assay type: functional, organism-based; settings: Aspergillus fumigatus, 7544, 48 h
Description: Antifungal activity against Aspergillus fumigatus 7544 assessed as inhibition of fungal growth incubated for 48 hrs by microdilution method

Cryptococcus neoformans [25] = test: Inhibition of Cryptococcus neoformans H99 delta5,6-desaturase assessed as upregulation of ERG1 gene expression at 2 ug/ml incubated for 24 hrs by RT-PCR analysis; settings: dose 2.0 µg/ml
Cryptococcus neoformans [26] = test: Anti-cryptococcal activity against Cryptococcus neoformans H99 assessed as cell membrane damage at 0.5 to 4 ug/ml incubated for 8 hrs by transmission electron microscopy; assay type: functional, organism-based; settings: dose 0.5-4 µg/ml, DDE = dose-dependent effect
Pichia kudriavzevii = test: microbe, parasite or virus in culture; assay type: functional, organism-based; settings: Pichia kudriavzevii, 10153, 48 h
Description: Antifungal activity against Candida krusei 10153 assessed as inhibition of fungal growth incubated for 48 hrs by microdilution method

Cryptococcus neoformans [27] = test: Fungicidal activity against Cryptococcus neoformans H99 assessed as fungal growth inhibition incubated upto 72 hrs by time-fungicidal curve assay; assay type: functional
Cryptococcus neoformans [28] = test: Inhibition of Cryptococcus neoformans H99 delta5,6-desaturase assessed as increase in ergosta-7,22-dien-3-ol levels at 0.125 to 2 ug/ml incubated for 24 hrs by GC-MS analysis; settings: dose 0.125-2 µg/ml, DDE = dose-dependent effect
Cryptococcus neoformans [29] = test: Anti-cryptococcal activity against Cryptococcus neoformans H99 assessed as cell membrane damage at 4 ug/ml incubated for 8 hrs by transmission electron microscopy; assay type: functional, organism-based; settings: dose 4.0 µg/ml
[30] = Cytotoxicity against HUVEC cells; settings: human
[Candida] auris [31] = microbe, parasite or virus in culture; assay type: functional, organism-based; settings: Candidozyma auris, 0029, 48 h
Description: Antifungal activity against Candida auris 0029 assessed as inhibition of fungal growth incubated for 48 hrs by microdilution method

[32] = microbe, parasite or virus in culture; assay type: functional; settings: Cryptococcus; time 72 hrs
Description: Anti-cryptococcal activity against Cryptococcus assessed as inhibition of fungal growth incubated for 72 hrs by microdilution method

Cryptococcus = test: Fungicidal activity against Cryptococcus assessed as ratio of MFC to MIC; assay type: functional
Candida albicans [33] = test: Antifungal activity against Candida albicans SC3514 assessed as low level of ergosta-7,22-dien-3-ol at 2 ug/ml incubated for 24 hrs in presence of NADPH by GC-MS analysis; assay type: functional, organism-based; settings: dose 2.0 µg/ml
[34] = […] in ICR mouse model of Cryptococcal meningitis infected with Cryptococcus neoformans H99 assessed as median survival time at 15 mg/kg, IG administered daily (reference value: 11 day); assay type: organism-based; settings: in vivo, po, 264 h
Cryptococcus neoformans [35] = test: Inhibition of Cryptococcus neoformans H99 delta5,6-desaturase assessed as upregulation of ERG3 under stress condition at 0.25 to 1 ug/ml incubated for 24 hrs by RT-PCR analysis; settings: dose 0.25-1 µg/ml, DDE = dose-dependent effect
Aspergillus fumigatus [36] = test: microbe, parasite or virus in culture; assay type: functional, organism-based; settings: 023-2, 48 h
Description: Antifungal activity against Aspergillus fumigatus 023-2 assessed as inhibition of fungal growth incubated for 48 hrs by microdilution method

Candida albicans [37] = test: microbe, parasite or virus in culture; assay type: functional, organism-based; settings: SC5314, 48 h
Description: Antifungal activity against Candida albicans SC5314 assessed as inhibition of fungal growth incubated for 48 hrs by microdilution method

Nakaseomyces glabratus [38] = test: microbe, parasite or virus in culture; assay type: functional, organism-based; settings: Nakaseomyces glabratus, 9025, 48 h
Description: Antifungal activity against Candida glabrata 9025 assessed as inhibition of fungal growth incubated for 48 hrs by microdilution method

Cryptococcus neoformans [39] = test: Inhibition of Cryptococcus neoformans H99 delta5,6-desaturase assessed as upregulation of ERG11 at 0.25 to 1 ug/ml incubated for 24 hrs by RT-PCR analysis; settings: dose 0.25-1 µg/ml, DDE = dose-dependent effect
Candida tropicalis = test: microbe, parasite or virus in culture; assay type: functional, organism-based; settings: Candida tropicalis, 10186, 48 h
Description: Antifungal activity against Candida tropicalis 10186 assessed as inhibition of fungal growth incubated for 48 hrs by microdilution method

Cryptococcus neoformans [40] = test: Inhibition of Cryptococcus neoformans H99 delta5,6-desaturase assessed as upregulation of ERG3 gene expression at 2 ug/ml incubated for 24 hrs by RT-PCR analysis; settings: dose 2.0 µg/ml
Cryptococcus neoformans [41] = test: Inhibition of biofilm formation in Cryptococcus neoformans H99 at 2 ug/ml incubated for 24 hrs by XTT reduction assay; assay type: functional
Candida albicans [42] = test: Upregulation of ERG11 in Candida albicans SC3514 at 0.5 ug/ml incubated for 24 hrs by RT-PCR analysis; assay type: functional; settings: dose 0.5 µg/ml

Structure (SMILES): Cl.Clc1ccc(C2CCC(NCCC3CCOCC3)c3ccsc32)cc1Cl (stereo not given)
- Activity (Cryptococcus neoformans [1]): Active
- IC50 ([Candida] auris [2]): 8 µg/mL
- Activity (Cryptococcus neoformans [3]): Active
- Activity (Cryptococcus neoformans [4]): Active
- Activity (Cryptococcus neoformans [5]): Active
- Activity (Cryptococcus neoformans [6]): Active
- CLH [7]: 136 µL/min/mg
- IC50 (Nakaseomyces glabratus [8]): 32 µg/mL
- IC50 ([Candida] auris [9]): 8 µg/mL
- IC50 (Cryptococcus neoformans [10]): 0.5 µg/mL
- IC50 (Candida albicans [11]): 32 µg/mL
- IC50 (Candida albicans [12]): 32 µg/mL
- Activity (Cryptococcus neoformans [13]): 100%
- Activity (Cryptococcus neoformans [14]): Active
- half-life [15]: 40.1 min
- Activity (Cryptococcus neoformans [16]): Active
- Activity (Cryptococcus neoformans [17]): Active
- Activity (Cryptococcus neoformans [18]): Active
- Activity (Candida albicans [19]): Active
- inhibition (Cryptococcus neoformans [20]): Dde
- Activity (Candida albicans [21]): Active
- Activity (Cryptococcus neoformans [22]): Active
- Activity (Cryptococcus neoformans [23]): Active
- IC50 (Aspergillus fumigatus [24]): 32 µg/mL
- Activity (Cryptococcus neoformans [25]): Active
- Activity (Cryptococcus neoformans [26]): Dde
- IC50 (Pichia kudriavzevii): 8 µg/mL
- MFC (Cryptococcus neoformans [27]): 8 µg/mL
- Activity (Cryptococcus neoformans [28]): Dde
- Activity (Cryptococcus neoformans [29]): Active
- IC50 [30]: 20.2 µM
- IC50 ([Candida] auris [31]): 16 µg/mL
- MIC50 [32]: 0.62 µg/mL
- Ratio (Cryptococcus): 7.47
- Activity (Candida albicans [33]): Active
- MST [34]: 14 days
- Activity (Cryptococcus neoformans [35]): Dde
- IC50 (Aspergillus fumigatus [36]): 32 µg/mL
- IC50 (Candida albicans [37]): 32 µg/mL
- IC50 (Nakaseomyces glabratus [38]): 8 µg/mL
- Activity (Cryptococcus neoformans [39]): Dde
- IC50 (Candida tropicalis): 32 µg/mL
- Activity (Cryptococcus neoformans [40]): Active
- inhibition at 2 µg/mL (Cryptococcus neoformans [41]): 50%
- Activity (Candida albicans [42]): Active
